Data on 24 molecules can be found in US9107914B2, “Beta-carbolines for use in the treatment of hearing loss and vertigo” (AudioCure Pharma GmbH, priority 2009, dated 2015).

The test system of one assay is inner ear of guinea pigs. As to the kind of experiment: Prophylaxis of hearing damages in an animal model, gentamicin and etacrynic acid (Example 30). To be noted: infusion to the round window recess, gentamicin and etacrynic acid i.v. It counts as in vivo. Here is the method:
A solution containing β-carboline was infused continuously into the recess in front of the membrane of the round window of guinea pigs by a osmotic mini-pump for three days. The following β-carbolines were tested individually in this experiment: 9-methyl-β-carboline, compounds XI, XII, XVIII, XIX as well as C to L.
Then, a standard dose of gentamicin and etacrynic acid was injected intravenously into guinea pigs. Gentamicin and etacrynic acid damage the inner ear. Typically, they are used as toxins to induce deafness in such studies. The infusion was continued for further two days. Then, the electrophysiological activity of the nerve cells of the brain stem, which transmit the impulses of the inner ear, was deduced after acoustic irradiation of the ear with […]. The non-β-carboline-treated ear served as intraindividual control (Prieskorn D M, Miller J M. Technical report: chronic and acute intracochlear infusion in rodents. Hear Res, 2000; 140(1-2): 212-215). Moreover, animals were infused with 9-Me-BC only but not with gentamicin as a further control.
The measured electrophysiological activity of the nerve cells of the acoustic nerve (hearing threshold) served as a measure of the degree of therapeutic effect of the used β-carbolines on the inner ear. As can be learned from Table 3, the used β-carbolines show the increase in electrophysiological activity of the nerve cells of the acoustic nerve. It can be concluded from this that β-carbolines are useful for the treatment of hearing damages, vertigo, and vestibular disorders.

Assay [1] has as its system BDNF, GDNF, NGF and NPY in human SH-SY5Y neuroblastoma cells. As to the kind of experiment: Gene expression of growth factors by reverse transcriptase-PCR (Table 2 summary). Further: key: +: marginally better than 9-methyl-β-carboline; ±: equal to 9-methyl-β-carboline; −: marginally worse than 9-methyl-β-carboline. It counts as cell-based. To be noted: after 2 and 14 days. Here is the method:
Next, it was investigated, whether the substances could induce the formation of nerve growth factors in human SH-SY5Y neuroblastoma cell. After 2 and 14 days the cells were harvested and the expression of the target gene and the house keeping gene was determined via reverse transcriptase-PCR.
The effects of the other inventive β-carbolines (compounds A-L and VI-XX) on the gene expression of BDNF, GDNF, NGF and NPY were determined, as described above, in human SH-SY5Y neuroblastoma cells after 2 and 14 days.

Assay [2] has as its system human SH-SY5Y neuroblastoma cells. Put plainly: Differentiation model / neurite length in human neuroblastoma cells. On differentiation / neurite length in comparison to 9-methyl-β-carboline: key: +: marginally better than 9-methyl-β-carboline; ±: equal to 9-methyl-β-carboline; −: marginally worse than 9-methyl-β-carboline. It counts as cell-based. To be noted: 14 days; for differentiation / neurite length in comparison to 9-methyl-β-carboline: SH-SY5Y cells. The text has this: Human neuroblastoma cells were utilised for this model. These are permanent cells, which are present as an indifferent type in culture. They can be activated to differentiate, i.e. transformation into neuronal cells, by addition of specific substances such as retinoic acid, […] (BDNF) or activator of the enzyme, protein kinase C to the culture medium. We used this cell system to analyse whether beta-carbolines can transform the indifferent cells into the neuronal type. Criteria were: less proliferation (less cells per field of view); smaller cell bodies (transformation from the indifferent type to the neuronal type); cytodendrites (neuritis), which provide connections to neighbouring cells or clusters of neighbouring cells.
Human SH-SY5Y neuroblastoma cells were incubated in culture for 14 days with solvent (Ko) or test substance. A shift of the graph to the right side for a test substance, pointed to an increase of neurite length, when compared to the graph for the control substance. Statistical differences between the treated groups were calculated with the Tukey's Multiple Comparison-Test.
Shown are the cumulative frequency distributions of neurite lengths, determined in at least 20 randomly selected visual fields (each 640.000 μm^2) in three independent experiments. A steep rise pointed to a predominance of short neuritis, wherein for example in control cells, a less steep rise signified a greater number of longer neurites. The horizontal maximum indicated the maximal neurite length of the respective treatment group. […] The effects are dose- and substance-dependent: 1-methyl-β-carboline <6-methoxy-9-methyl-β-carboline <9-methyl-β-carboline <9-fluorethyl-β-carboline).
The effects of the other inventive β-carbolines (compounds A-L and VI-XX) on neurite length were determined, as described above, in human SH-SY5Y neuroblastoma cells after 14 days.

For assay [3], the system named is cells of the spiral ganglion of the inner ear. To be noted: 48 hours of culture; cited from earlier work.

As for `c1ccc(Cn2c3ccccc3c3ccncc32)cc1` [compound I], the “effect on the inner ear (electrophysiological activity, hearing threshold) in comparison to 9-methyl-β-carboline” value with inner ear of guinea pigs is “−”. The “gene expression of BDNF, GDNF, NGF and NPY in comparison to 9-methyl-β-carboline” value (shortened to “gene expression of BDNF, GDNF”) in assay [1] is given as “−”. For the same molecule, in assay [2], the “differentiation / neurite length in comparison to 9-methyl-β-carboline” value (“differentiation / neurite length” for short) is “−”.
With `CC(C)Cn1c2ccccc2c2ccncc21` [compound E], in the assay on inner ear of guinea pigs, the “effect on the inner ear (electrophysiological activity, hearing threshold) in comparison to 9-methyl-β-carboline” value is reported as “−”. In addition, the “gene expression of BDNF, GDNF” value in assay [1] was “±”. Further, the “differentiation / neurite length” value in assay [2] is given as “+”.
As to `COc1ccc2c(c1)c1ccncc1n2C1CC1` [compound (XI)], the “effect on the inner ear (electrophysiological activity, hearing threshold) in comparison to 9-methyl-β-carboline” value with inner ear of guinea pigs was “±”. For the same molecule, in assay [1], the “gene expression of BDNF, GDNF” value is on record as “±”. In addition, the “differentiation / neurite length” value in assay [2] is reported as “+”.
In the case of `COc1ccc2c(c1)c1ccncc1n2C(C)C` [compound (VII)], the “effect on the inner ear (electrophysiological activity, hearing threshold) in comparison to 9-methyl-β-carboline” value in the assay with inner ear of guinea pigs was “−”. Further, the “gene expression of BDNF, GDNF” value in assay [1] is reported as “±”. The “differentiation / neurite length” value in assay [2] is listed as “−”.
Consider `Cc1ccc2c(c1)c1ccnc(C(C)C)c1n2C` [compound (XVI)], for which the “effect on the inner ear (electrophysiological activity, hearing threshold) in comparison to 9-methyl-β-carboline” value with inner ear of guinea pigs is reported as “−”. In assay [1], the “gene expression of BDNF, GDNF” value is given as “−”. Also, in assay [2], the “differentiation / neurite length” value was “−”.
Consider `CN(C)c1ccc2c(c1)c1ccncc1n2C` [compound (XIII)], for which the “effect on the inner ear (electrophysiological activity, hearing threshold) in comparison to 9-methyl-β-carboline” value in the assay with inner ear of guinea pigs is “±”. Besides, the “gene expression of BDNF, GDNF” value in assay [1] is given as “±”. Moreover, the “differentiation / neurite length” value in assay [2] is on record as “±”.
Turning to `CN(C)CCn1c2ccccc2c2ccncc21` [compound L], in the assay on inner ear of guinea pigs, the “effect on the inner ear (electrophysiological activity, hearing threshold) in comparison to 9-methyl-β-carboline” value is “+”. In assay [1], the “gene expression of BDNF, GDNF” value is given as “±”. For the same molecule, the “differentiation / neurite length” value in assay [2] was “+”.
On to `CCCCCCn1c2ccccc2c2ccncc21` [compound B], for which, in the assay with inner ear of guinea pigs, the “effect on the inner ear (electrophysiological activity, hearing threshold) in comparison to 9-methyl-β-carboline” value is on record as “−”. In addition, in assay [1], the “gene expression of BDNF, GDNF” value is on record as “−”. In assay [2], the “differentiation / neurite length” value was “−”.
For the molecule `Cc1ccc2c(c1)c1ccncc1n2C` [compound (XVII)], the “effect on the inner ear (electrophysiological activity, hearing threshold) in comparison to 9-methyl-β-carboline” value in the assay with inner ear of guinea pigs is on record as “−”. Besides, in assay [1], the “gene expression of BDNF, GDNF” value was “±”. Also, the “differentiation / neurite length” value in assay [2] is given as “±”.
As to `CCCCCCCCCCCCCCn1c2ccccc2c2ccncc21` [compound C], the “effect on the inner ear (electrophysiological activity, hearing threshold) in comparison to 9-methyl-β-carboline” value with inner ear of guinea pigs was “+”. The “gene expression of BDNF, GDNF” value in assay [1] was “±”. For the same molecule, in assay [2], the “differentiation / neurite length” value was “±”.
As to `C=CCn1c2ccccc2c2ccncc21` [compound D], the “effect on the inner ear (electrophysiological activity, hearing threshold) in comparison to 9-methyl-β-carboline” value in the assay with inner ear of guinea pigs is given as “−”. Further, the “gene expression of BDNF, GDNF” value in assay [1] was “+”. Besides, in assay [2], the “differentiation / neurite length” value was “+”.
Turning to `C/C=C/C(C)=C\n1c2ccccc2c2ccnc(Cl)c21` [compound (IX)], in the assay with inner ear of guinea pigs, the “effect on the inner ear (electrophysiological activity, hearing threshold) in comparison to 9-methyl-β-carboline” value is “−”. For the same molecule, the “gene expression of BDNF, GDNF” value in assay [1] is “−”. Further, the “differentiation / neurite length” value in assay [2] is “−”.
Consider `Cc1nccc2c1[nH]c1ccccc12` [harman, 1-methyl-β-carboline, reference compound], for which, in the assay with inner ear of guinea pigs, the “effect on the inner ear (electrophysiological activity, hearing threshold) in comparison to 9-methyl-β-carboline” value is given as “−”. Also, in assay [1], the “gene expression of BDNF, GDNF” value is listed as “−”. For the same molecule, the neurite length entry in assay [2] (110 μM, vs control group, P<0.001) is recorded as “increase in neurite length”. In assay [2], the “differentiation / neurite length” value was “−”.
In the case of `CC(C)C(C)Cn1c2ccccc2c2ccncc21` (stereo not drawn) [compound K], the “effect on the inner ear (electrophysiological activity, hearing threshold) in comparison to 9-methyl-β-carboline” value in the assay with inner ear of guinea pigs was “±”. For the same molecule, the “gene expression of BDNF, GDNF” value in assay [1] is given as “−”. Also, in assay [2], the “differentiation / neurite length” value is “±”.
For the molecule `COc1nccc2c3cc(Cl)ccc3n(C)c12` [compound (XIV)], in the assay with inner ear of guinea pigs, the “effect on the inner ear (electrophysiological activity, hearing threshold) in comparison to 9-methyl-β-carboline” value is on record as “−”. Further, in assay [1], the “gene expression of BDNF, GDNF” value was “−”. Besides, the “differentiation / neurite length” value in assay [2] is listed as “−”.
`C#CCn1c2ccccc2c2ccncc21` [compound H]: the “effect on the inner ear (electrophysiological activity, hearing threshold) in comparison to 9-methyl-β-carboline” value in the assay with inner ear of guinea pigs is “+”. Besides, the “gene expression of BDNF, GDNF” value in assay [1] was “±”. The “differentiation / neurite length” value in assay [2] is “+”.
As for `CCn1c2ccccc2c2ccncc21` [compound F], the “effect on the inner ear (electrophysiological activity, hearing threshold) in comparison to 9-methyl-β-carboline” value in the assay on inner ear of guinea pigs is listed as “±”. In assay [1], the “gene expression of BDNF, GDNF” value is “±”. The “differentiation / neurite length” value in assay [2] is “±”.
Consider `CCCn1c2ccccc2c2ccncc21` [compound A], for which the “effect on the inner ear (electrophysiological activity, hearing threshold) in comparison to 9-methyl-β-carboline” value with inner ear of guinea pigs was “−”. For the same molecule, the “gene expression of BDNF, GDNF” value in assay [1] is reported as “−”. For the same molecule, in assay [2], the “differentiation / neurite length” value is recorded as “−”.
For `COC(=O)CCn1c2ccccc2c2ccncc21` [compound J], the “effect on the inner ear (electrophysiological activity, hearing threshold) in comparison to 9-methyl-β-carboline” value in the assay with inner ear of guinea pigs is “±”. In assay [1], the “gene expression of BDNF, GDNF” value was “−”. Also, in assay [2], the “differentiation / neurite length” value is “±”.
Turning to `C=CCn1c2ccccc2c2ccncc21` [compound (XX)], the “effect on the inner ear (electrophysiological activity, hearing threshold) in comparison to 9-methyl-β-carboline” value with inner ear of guinea pigs is on record as “±”. Moreover, the “gene expression of BDNF, GDNF” value in assay [1] is given as “±”. The “differentiation / neurite length” value in assay [2] is reported as “−”.
For the molecule `Cn1c2ccc(OC(F)(F)F)cc2c2ccncc21` [compound (XII)], in the assay on inner ear of guinea pigs, the “effect on the inner ear (electrophysiological activity, hearing threshold) in comparison to 9-methyl-β-carboline” value was “+”. The “gene expression of BDNF, GDNF” value in assay [1] is reported as “+”. The “differentiation / neurite length” value in assay [2] is given as “+”.
As to `COCCn1c2ccccc2c2ccncc21` [compound G], the “effect on the inner ear (electrophysiological activity, hearing threshold) in comparison to 9-methyl-β-carboline” value in the assay on inner ear of guinea pigs was “+”. Moreover, the “gene expression of BDNF, GDNF” value in assay [1] was “±”. Also, the “differentiation / neurite length” value in assay [2] is recorded as “±”.

B1: GDNF: Glial cell line derived neurotrophic factor (protein, UniProt P39905 78-211, looked up)
Glial cell line-derived …: SPDKQMAVLPRRERNRQAAAANPENSRGKGRRGQRGKNRGCVLTAIHLNVTDLGLGYETKEELIFRYCSGSCDAAETTYDKILKNLSRNRRLVSDKVGQACCRPIAFDDDLSFLDDNLVYHILRKHSAKRCGCI
On to B1, for which, in assay [3], the “survival of cells of the spiral ganglion” value is reported as “neuroprotective properties”.

B2: BDNF: brain-derived neurotrophic factor (protein, UniProt P23560 19-247, looked up)
Neurotrophic factor BDNF …: APMKEANIRGQGGLAYPGVRTHGTLESVNGPKAGSRGLTSLADTFEHVIEELLDEDQKVRPNEENNKDADLYTSRVMLSSQVPLEPPLLFLLEEYKNYLDAANMSMRVRRHSDPARRGELSVCDSISEWVTAADKKTAVDMSGGTVTVLEKVPVSKGQLKQYFYETKCNPMGYTKEGCRGIDKRHWNSQCRTTQSYVRALTMDSKKRIGWRFIRIDTSCVCTLTIKRGR
As to B2, in assay [3], the “survival of cells of the spiral ganglion” value is on record as “neuroprotective properties”.
